Source: US20220117968A1, “THIENO[2,3-D)PYRIMIDINES AND BENZOFURO(3,2-D)PYRIMIDINES AS ANTIMICROBIAL AGENTS” (Saint Louis University, priority 2017, published 2022)
Converted amounts (≈) assume the structure as drawn. Counter-ions that a name gives are not always drawn. Like-named read-outs stand apart in the source and are kept apart here.

Tested on: WT Mtb Erdman strain
Assay: Microplate Alamar Blue Assay (MABA)
Format: cell-based
Conditions: Mycobacterium tuberculosis; for MIC50: read-out: MABA MIC50; for MIC90: read-out: MABA MIC90
[1] = concentration that inhibits mycobacterial survival by 50%, Middlebrook 7H9 media, 7 days at 37° C., resazurin 24 hours
[2] = concentration that inhibits mycobacterial survival by 90%, Middlebrook 7H9 media, 7 days at 37° C., resazurin 24 hours

## CCCCNc1nc(CC)nc2sc(C)cc12 [Example 0728, N-butyl-2-ethyl-6-methylthieno[2,3-d]pyrimidin-4-amine]
[1]
  MIC50: 0.182 µM (≈ 0.0454 µg/mL)
[2]
  MIC90: 0.524 µM (≈ 0.131 µg/mL)

## Cc1nc(NCc2ccccc2)c2c(C)c(C)sc2n1 [Example 0795, N-Benzyl-2,5,6-trimethylthieno[2,3-d]pyrimidin-4-amine]
[1]
  MIC50: 25.4 µM (≈ 7.2 µg/mL)
[2]
  MIC90: 28.4 µM (≈ 8.05 µg/mL)

## CCCCNc1nc(C)nc2sc(C)c(C)c12 [Example 0796, N-butyl-2,5,6-trimethylthieno[2,3-d]pyrimidin-4-amine trifluoroacetate]
  MIC50: > 50 µM
  MIC90: > 50 µM

## Cc1nc(Nc2ccccc2)c2c(C)c(C)sc2n1 [Example 0797, 2,5,6-Trimethyl-N-phenylthieno[2,3-d]pyrimidin-4-amine]
[1]
  MIC50: > 50 µM
[2]
  MIC90: > 50 µM

## Cc1nc(NCCc2ccccc2)c2c(C)c(C)sc2n1 [Example 0798, 2,5,6-Trimethyl-N-(2-phenylethyl)thieno[2,3-d]pyrimidin-4-amine]
[1]
  MIC50: 27.4 µM (≈ 8.15 µg/mL)
[2]
  MIC90: 32.9 µM (≈ 9.79 µg/mL)

## CCc1nc(NC(C(=O)O)C(C)C)c2cc(C)sc2n1 (stereo not drawn) [Example 0851, 2-({2-ethyl-6-methylthieno[2,3-d]pyrimidin-4-yl}amino)-3-methylbutanoic acid]
[1]
  MIC50: > 50 µM
[2]
  MIC90: > 50 µM

## CCc1nc(NCCCN(C)C)c2cc(C)sc2n1 [Example 0935, [3-({2-ethyl-6-methylthieno[2,3-d]pyrimidin-4-yl}amino)propyl]dimethylamine]
[1]
  MIC50: > 50 µM
[2]
  MIC90: > 50 µM

## CCc1nc(NCCCC(F)(F)F)c2cc(C)sc2n1 [Example 1020, 2-Ethyl-6-methyl-N-(4,4,4-trifluorobutyl)thieno[2,3-d]pyrimidin-4-amine]
[1]
  MIC50: 0.116 µM (≈ 0.0352 µg/mL)
[2]
  MIC90: 0.163 µM (≈ 0.0494 µg/mL)

## CCc1nc(NCCCc2ccccc2)c2cc(C)sc2n1 [Example 1023, 2-Ethyl-6-methyl-N-(3-phenylpropyl)thieno[2,3-d]pyrimidin-4-amine]
[1]
  MIC50: 0.0266 µM (≈ 0.00828 µg/mL)
[2]
  MIC90: 0.108 µM (≈ 0.0336 µg/mL)

## Cc1cc2c(NC3CC3)nc(-c3ccccc3)nc2s1 [Example 1062, N-Cyclopropyl-6-methyl-2-phenyl-thieno[2,3-d]pyrimidin-4-amine]
[1]
  MIC50: 2.88 µM (≈ 0.81 µg/mL)
[2]
  MIC90: 6.01 µM (≈ 1.69 µg/mL)

## Cc1cc2c(NC3CC3)nc(Cc3ccc(F)cc3)nc2s1 [Example 1063, N-Cyclopropyl-2-[(4-fluorophenyl)methyl]-6-methyl-thieno[2,3-d]pyrimidin-4-amine]
[1]
  MIC50: 21 µM (≈ 6.58 µg/mL)
[2]
  MIC90: 41.7 µM (≈ 13.1 µg/mL)

## CCc1nc(NC2CC2)c2oc3ccccc3c2n1 [Example 1142, N-cyclopropyl-2-ethyl-benzofuro[3,2-d]pyrimidin-4-amine]
[1]
  MIC50: 8.37 µM (≈ 2.12 µg/mL)
[2]
  MIC90: 24.8 µM (≈ 6.28 µg/mL)

## CCc1nc(NC2CC2)c2cc(Br)sc2n1 [Example 1146, 6-Bromo-N-cyclopropyl-2-ethyl-thieno[2,3-d]pyrimidin-4-amine]
[1]
  MIC50: 5.98 µM (≈ 1.78 µg/mL)
[2]
  MIC90: 13.8 µM (≈ 4.12 µg/mL)

## CCc1nc(NC2CC2)c2cc(-c3ccccc3)sc2n1 [Example 1150, N-Cyclopropyl-2-ethyl-6-phenyl-thieno[2,3-d]pyrimidin-4-amine]
[1]
  MIC50: 21.1 µM (≈ 6.23 µg/mL)
[2]
  MIC90: 23.1 µM (≈ 6.82 µg/mL)

## Cc1nc(NC2CC2)c2oc3ccccc3c2n1 [Example 1151, N-Cyclopropyl-2-methyl-benzofuro[3,2-d]pyrimidin-4-amine]
[1]
  MIC50: 11.1 µM (≈ 2.66 µg/mL)
[2]
  MIC90: 33.9 µM (≈ 8.11 µg/mL)

## C=C(C)c1cc2c(NC3CC3)nc(CC)nc2s1 [Example 1154, N-Cyclopropyl-2-ethyl-6-(prop-1-en-2-yl)thieno[2,3-d]pyrimidin-4-amine]
[1]
  MIC50: 45.9 µM (≈ 11.9 µg/mL)
[2]
  MIC90: > 50 µM

## CCc1nc(NC2CC2)c2cc(C3CC3)sc2n1 [Example 1161, N,6-Dicyclopropyl-2-ethyl-thieno[2,3-d]pyrimidin-4-amine]
[1]
  MIC50: 31.3 µM (≈ 8.12 µg/mL)
[2]
  MIC90: 36.3 µM (≈ 9.42 µg/mL)

## CCCCNc1nc(CC)nc2sccc12 [Example 1176, N-butyl-2-ethyl-thieno[2,3-d]pyrimidin-4-amine]
[1]
  MIC50: 3.8 µM (≈ 0.894 µg/mL)
[2]
  MIC90: 14.4 µM (≈ 3.39 µg/mL)

## CCc1nc(NC2CC2)c2cc(C(F)(F)F)sc2n1 [Example 1177, N-Cyclopropyl-2-ethyl-6-(trifluoromethyl)thieno[2,3-d]pyrimidin-4-amine]
[1]
  MIC50: 30.8 µM (≈ 8.85 µg/mL)
[2]
  MIC90: > 50 µM

## CCc1nc(NC2CC2)c2cc(Cl)sc2n1 [Example 1181, 6-Chloro-N-cyclopropyl-2-ethyl-thieno[2,3-d]pyrimidin-4-amine]
[1]
  MIC50: 3.06 µM (≈ 0.776 µg/mL)
[2]
  MIC90: 7.64 µM (≈ 1.94 µg/mL)

## Cc1nc(NCCCc2ccccc2)c2oc3ccccc3c2n1 [Example 1299, 2-Methyl-N-(3-phenylpropyl)benzofuro[3,2-d]pyrimidin-4-amine]
[1]
  MIC50: 0.128 µM (≈ 0.0406 µg/mL)
[2]
  MIC90: 0.188 µM (≈ 0.0597 µg/mL)

## CCc1nc(NCCCc2ccccc2)c2oc3ccccc3c2n1 [Example 1300, 2-Ethyl-N-(3-phenylpropyl)benzofuro[3,2-d]pyrimidin-4-amine]
[1]
  MIC50: 0.164 µM (≈ 0.0544 µg/mL)
[2]
  MIC90: 0.389 µM (≈ 0.129 µg/mL)

## CCCCNc1nc(CC)nc2c1oc1ccccc12 [Example 1301, N-Butyl-2-ethylbenzofuro[3,2-d]pyrimidin-4-amine]
[1]
  MIC50: 3.8 µM (≈ 1.02 µg/mL)
[2]
  MIC90: 8.97 µM (≈ 2.42 µg/mL)

## CCc1nc(NCc2ccc(Cl)cc2)c2cc(C)sc2n1 [Example 1302, N-(4-Chlorobenzyl)-2-ethyl-6-methylthieno[2,3-d]pyrimidin-4-amine]
[1]
  MIC50: 2.63 µM (≈ 0.836 µg/mL)
[2]
  MIC90: 5.54 µM (≈ 1.76 µg/mL)

## CCc1nc(NCc2ccccc2)c2cc(C)sc2n1 [Example 1303, N-Benzyl-2-ethyl-6-methylthieno[2,3-d]pyrimidin-4-amine]
[1]
  MIC50: 10.6 µM (≈ 3 µg/mL)
[2]
  MIC90: 20.8 µM (≈ 5.89 µg/mL)

## CCc1nc(Nc2ccccc2)c2cc(C)sc2n1 [Example 1304, 2-Ethyl-6-methyl-N-phenylthieno[2,3-d]pyrimidin-4-amine]
[1]
  MIC50: 25.2 µM (≈ 6.79 µg/mL)
[2]
  MIC90: 41.6 µM (≈ 11.2 µg/mL)

## CCc1nc(NCCCc2ccccc2)c2ccsc2n1 [Example 1305, 2-Ethyl-N-(3-phenylpropyl)thieno[2,3-d]pyrimidin-4-amine]
[1]
  MIC50: 0.113 µM (≈ 0.0336 µg/mL)
[2]
  MIC90: 0.145 µM (≈ 0.0431 µg/mL)

## CCc1nc(NCCc2ccccc2)c2cc(C)sc2n1 [Example 1306, 2-Ethyl-6-methyl-N-phenethylthieno[2,3-d]pyrimidin-4-amine]
[1]
  MIC50: 0.125 µM (≈ 0.0372 µg/mL)
[2]
  MIC90: 0.183 µM (≈ 0.0544 µg/mL)

## CCc1nc(NCCc2ccc(Cl)cc2Cl)c2cc(C)sc2n1 [Example 1307, N-[2-(2,4-Dichlorophenyl)ethyl]-2-ethyl-6-methylthieno[2,3-d]pyrimidin-4-amine]
[1]
  MIC50: 0.526 µM (≈ 0.193 µg/mL)
[2]
  MIC90: 1.18 µM (≈ 0.432 µg/mL)

## CCc1nc(NCc2ccccn2)c2cc(C)sc2n1 [Example 1308, 2-Ethyl-6-methyl-N-(2-pyridylmethyl)thieno[2,3-d]pyrimidin-4-amine]
[1]
  MIC50: 21.6 µM (≈ 6.14 µg/mL)
[2]
  MIC90: 31.6 µM (≈ 8.99 µg/mL)

## Cc1cc2c(NCCCc3ccccc3)nc(C(F)(F)F)nc2s1 [Example 1536, 6-Methyl-N-(3-phenylpropyl)-2-(trifluoromethyl)thieno[2,3-d]pyrimidin-4-amine]
[1]
  MIC50: 0.386 µM (≈ 0.136 µg/mL)
[2]
  MIC90: 0.479 µM (≈ 0.168 µg/mL)

## FC(F)(F)c1nc(NCCCc2ccccc2)c2ccsc2n1 [Example 1537, N-(Phenylpropyl)-2-(trifluoromethyl)thieno[2,3-d]pyrimidin-4-amine]
[1]
  MIC50: 0.439 µM (≈ 0.148 µg/mL)
[2]
  MIC90: 1.14 µM (≈ 0.385 µg/mL)

## Cc1cc2c(NCCCc3ccccc3)nc(C(F)(F)C(F)(F)F)nc2s1 [Example 1538, 6-Methyl-2-(1,1,2,2,2-pentafluoroethyl)-N-(3-phenylpropyl)thieno[2,3-d]pyrimidin-4-amine]
[1]
  MIC50: 0.597 µM (≈ 0.24 µg/mL)
[2]
  MIC90: 1.1 µM (≈ 0.442 µg/mL)

## FC(F)(F)C(F)(F)c1nc(NCCCc2ccccc2)c2ccsc2n1 [Example 1539, 2-(1,1,2,2,2-Pentafluoroethyl)-N-(3-phenylpropyl)thieno[2,3-d]pyrimidin-4-amine]
[1]
  MIC50: 4.9 µM (≈ 1.9 µg/mL)
[2]
  MIC90: 7.36 µM (≈ 2.85 µg/mL)

## Cc1cc2c(NC3CC3)nc(C(F)(F)F)nc2s1 [Example 1540, N-Cyclopropyl-6-methyl-2-(trifluoromethyl)thieno[2,3-d]pyrimidin-4-amine]
[1]
  MIC50: 1.81 µM (≈ 0.495 µg/mL)
[2]
  MIC90: 4.79 µM (≈ 1.31 µg/mL)

## Cc1cc2c(NC3CC3)nc(C(F)(F)C(F)(F)F)nc2s1 [Example 1542, N-Cyclopropyl-6-methyl-2-(perfluoroethyl)thieno[2,3-d]pyrimidin-4-amine]
[1]
  MIC50: 5.28 µM (≈ 1.71 µg/mL)
[2]
  MIC90: 10.1 µM (≈ 3.27 µg/mL)

## FC(F)(F)C(F)(F)c1nc(NC2CC2)c2ccsc2n1 [Example 1543, N-Cyclopropyl-2-(perfluoroethyl)thieno[2,3-d]pyrimidin-4-amine]
[1]
  MIC50: 26.9 µM (≈ 8.32 µg/mL)
[2]
  MIC90: 29.6 µM (≈ 9.15 µg/mL)

## CCCCNc1nc(C(F)(F)F)nc2sc(C)cc12 [Example 1544, N-Butyl-6-methyl-2-(trifluoromethyl)thieno[2,3-d]pyrimidin-4-amine]
[1]
  MIC50: 1.14 µM (≈ 0.33 µg/mL)
[2]
  MIC90: 3.69 µM (≈ 1.07 µg/mL)

## CCCCNc1nc(C(F)(F)C(F)(F)F)nc2sc(C)cc12 [Example 1546, N-Butyl-6-methyl-2-(perfluoroethyl)thieno[2,3-d]pyrimidin-4-amine]
[1]
  MIC50: 11.2 µM (≈ 3.8 µg/mL)
[2]
  MIC90: 12.4 µM (≈ 4.21 µg/mL)

## CCCCNc1nc(C(F)(F)C(F)(F)F)nc2sccc12 [Example 1547, N-Butyl-2-(perfluoroethyl)thieno[2,3-d]pyrimidin-4-amine]
[1]
  MIC50: 21.9 µM (≈ 7.12 µg/mL)
[2]
  MIC90: 23.8 µM (≈ 7.74 µg/mL)

## FC(F)(F)CCCNc1nc(C(F)(F)F)nc2sccc12 [Example 1548, N-(4,4,4-Trifluorobutyl)-2-(trifluoromethyl)thieno[2,3-d]pyrimidin-4-amine]
[1]
  MIC50: 12.3 µM (≈ 4.05 µg/mL)
[2]
  MIC90: 13.7 µM (≈ 4.51 µg/mL)

## FC(F)(F)CCCNc1nc(C(F)(F)C(F)(F)F)nc2sccc12 [Example 1549, 2-(Perfluoroethyl)-N-(4,4,4-trifluorobutyl)thieno[2,3-d]pyrimidin-4-amine]
[1]
  MIC50: 22.3 µM (≈ 8.46 µg/mL)
[2]
  MIC90: 24.2 µM (≈ 9.18 µg/mL)

## Cc1cc2c(NCCCC(F)(F)F)nc(C(F)(F)F)nc2s1 [Example 1551, 6-Methyl-N-(4,4,4-trifluorobutyl)-2-(trifluoromethyl)thieno[2,3-d]pyrimidin-4-amine]
[1]
  MIC50: 0.846 µM (≈ 0.29 µg/mL)
[2]
  MIC90: 3.88 µM (≈ 1.33 µg/mL)

## CCc1nc(NCCCc2ccccc2)c2c(C)csc2n1 [Example 1698, 2-Ethyl-5-methyl-N-(3-phenylpropyl)thieno[2,3-d]pyrimidin-4-amine]
[1]
  MIC50: 0.515 µM (≈ 0.16 µg/mL)
[2]
  MIC90: 3.67 µM (≈ 1.14 µg/mL)

## CCc1nc(NCCCC(F)(F)F)c2c(C)csc2n1 [Example 1700, 2-Ethyl-5-methyl-N-(4,4,4-trifluorobutyl)thieno[2,3-d]pyrimidin-4-amine]
[1]
  MIC50: 26.8 µM (≈ 8.13 µg/mL)
[2]
  MIC90: 30.7 µM (≈ 9.31 µg/mL)
